Laboratory results reported in ChEMBL document CHEMBL1629666, “Quinolone resistance in Neisseria gonorrhoeae: rapid genotyping of quinolone resistance-determining regions in gyrA and parC genes by melting curve analysis predicts susceptibility” (2009).
Converted amounts (≈) assume the structure as drawn.

Key:
[1] = test system: Neisseria gonorrhoeae; assay: Antimicrobial activity against Neisseria gonorrhoeae isolate IPC-NG6 harboring gyrA S91F, D95Y and parC E91G mutant gene by Etest
[2] = test system: Neisseria gonorrhoeae; assay: Antimicrobial activity against Neisseria gonorrhoeae isolate IPC-NG5 harboring gyrA S91F, D95A and parC E91G mutant gene by Etest
[3] = test system: Neisseria gonorrhoeae; assay: Antimicrobial activity against Neisseria gonorrhoeae isolate IPC-NG2 harboring gyrA S91F, D95Y and parC E91G mutant gene by Etest
[4] = test system: Neisseria gonorrhoeae; assay: Antimicrobial activity against Neisseria gonorrhoeae isolate IPC-NG1 harboring gyrA S91F, D95Y and parC E91G mutant gene by Etest
[5] = test system: Neisseria gonorrhoeae; assay: Antimicrobial activity against Neisseria gonorrhoeae isolate IPC-NG9 harboring gyrA S91F, D95A and parC S87N and E91Q mutant gene by Etest
[6] = test system: Neisseria gonorrhoeae; assay: Antimicrobial activity against Neisseria gonorrhoeae isolate IPC-NG13 harboring gyrA S91F, D95A and parC S87N and E91Q mutant gene by Etest
[7] = test system: Neisseria gonorrhoeae; assay: Antimicrobial activity against Neisseria gonorrhoeae isolate IPC-NG14 harboring gyrA S91F and D95A mutant gene by Etest
[8] = test system: Neisseria gonorrhoeae; assay: Antimicrobial activity against Neisseria gonorrhoeae isolate IPC-NG3 harboring gyrA S91F and D95A mutant gene by Etest
[9] = test system: Neisseria gonorrhoeae; assay: Antimicrobial activity against Neisseria gonorrhoeae isolate IPC-NG8 by Etest
[10] = test system: Neisseria gonorrhoeae; assay: Antimicrobial activity against Neisseria gonorrhoeae isolate IPC-NG16 harboring gyrA S91F, D95A and parC S87R mutant gene by Etest
[11] = test system: Neisseria gonorrhoeae; assay: Antimicrobial activity against Neisseria gonorrhoeae 95G0142 harboring gyrA S91F, D95N and parC S87R mutant gene by Etest
[12] = test system: Neisseria gonorrhoeae; assay: Antimicrobial activity against Neisseria gonorrhoeae WHO. L harboring gyrA S91F, D95N and parC D86N and S88P mutant gene by Etest
[13] = test system: Neisseria gonorrhoeae; assay: Antimicrobial activity against Neisseria gonorrhoeae 98G0872 harboring gyrA S91F, D95N and parC E91K mutant gene by Etest
[14] = test system: Neisseria gonorrhoeae; assay: Antimicrobial activity against Neisseria gonorrhoeae 98G0867 harboring gyrA S91F, D95G and parC S87R mutant gene by Etest
[15] = test system: Neisseria gonorrhoeae; assay: Antimicrobial activity against Neisseria gonorrhoeae WHO. M harboring gyrA S91F and D95G mutant gene by Etest
[16] = test system: Neisseria gonorrhoeae; assay: Antimicrobial activity against Neisseria gonorrhoeae 97G0109 harboring gyrA S91F, D95G and parC D86N mutant gene by Etest
[17] = test system: Neisseria gonorrhoeae; assay: Antimicrobial activity against Neisseria gonorrhoeae 97G0398 harboring gyrA S91F, D95G and parC S88P mutant gene by Etest
[18] = test system: Neisseria gonorrhoeae; assay: Antimicrobial activity against Neisseria gonorrhoeae 96G0142 harboring gyrA S91Y and parC E91Q mutant gene by Etest
[19] = test system: Neisseria gonorrhoeae; assay: Antimicrobial activity against Neisseria gonorrhoeae 98G0798 harboring gyrA S91F mutant gene by Etest
[20] = test system: Neisseria gonorrhoeae; assay: Antimicrobial activity against Neisseria gonorrhoeae 91G0316 harboring gyrA S91F mutant gene by Etest
[21] = test system: Neisseria gonorrhoeae; assay: Antimicrobial activity against Neisseria gonorrhoeae 07 QA 06 harboring gyrA S91F mutant gene by Etest
[22] = test system: Neisseria gonorrhoeae; assay: Antimicrobial activity against Neisseria gonorrhoeae 98G0959 harboring gyrA D95N mutant gene by Etest
[23] = test system: Neisseria gonorrhoeae; assay: Antimicrobial activity against Neisseria gonorrhoeae WHO. G harboring gyrA S91F mutant gene by Etest
[24] = test system: Neisseria gonorrhoeae; assay: Antimicrobial activity against Neisseria gonorrhoeae 91G0622 harboring gyrA D95N mutant gene by Etest
[25] = test system: Neisseria gonorrhoeae; assay: Antimicrobial activity against Neisseria gonorrhoeae 97G0319 harboring gyrA D95G mutant gene by Etest
[26] = test system: Neisseria gonorrhoeae; assay: Antimicrobial activity against Neisseria gonorrhoeae 93G0065 harboring gyrA D95N mutant gene by Etest
[27] = test system: Neisseria gonorrhoeae; assay: Antimicrobial activity against Neisseria gonorrhoeae 07 QA 02 by Etest
[28] = test system: Neisseria gonorrhoeae; assay: Antimicrobial activity against Neisseria gonorrhoeae WHO. C by Etest
[29] = test system: Neisseria gonorrhoeae; assay: Antimicrobial activity against Neisseria gonorrhoeae WHO. P by Etest
[30] = test system: Neisseria gonorrhoeae; assay: Antimicrobial activity against Neisseria gonorrhoeae WHO. O by Etest
[31] = test system: Neisseria gonorrhoeae; assay: Antimicrobial activity against Neisseria gonorrhoeae 92G0551 harboring gyrA S91Y mutant gene by Etest
[32] = test system: Neisseria gonorrhoeae; assay: Antimicrobial activity against Neisseria gonorrhoeae isolate IPC-NG7 harboring gyrA S91F, D95G and parC S87N and E91Q mutant gene by Etest
[33] = test system: Neisseria gonorrhoeae; assay: Antimicrobial activity against Neisseria gonorrhoeae isolate IPC-NG10 harboring gyrA S91F, D95G and parC S87R mutant gene by Etest
[34] = test system: Neisseria gonorrhoeae; assay: Antimicrobial activity against Neisseria gonorrhoeae isolate IPC-NG18 harboring gyrA S91F, D95A and parC S87N mutant gene by Etest
[35] = test system: Neisseria gonorrhoeae; assay: Antimicrobial activity against Neisseria gonorrhoeae isolate IPC-NG19 harboring gyrA S91F, D95A and parC S87N mutant gene by Etest
[36] = test system: Neisseria gonorrhoeae; assay: microbe, parasite or virus in culture; settings: isolate 108 175 340
Description: Antimicrobial activity against Neisseria gonorrhoeae isolate 108 175 340 harboring gyrA S91F, D95G and parC E91G mutant gene by Etest

O=C(O)c1cn(C2CC2)c2cc(N3CCNCC3)c(F)cc2c1=O [CIPROFLOXACIN]
MIC [1]: > 32 µg/mL
MIC [2]: > 32 µg/mL
MIC [3]: > 32 µg/mL
MIC [4]: > 32 µg/mL
MIC [5]: 16 µg/mL (≈ 48.3 µM)
MIC [6]: 12 µg/mL (≈ 36.2 µM)
MIC [7]: 3 µg/mL (≈ 9.05 µM)
MIC [8]: 3 µg/mL (≈ 9.05 µM)
MIC [9]: 0.016 µg/mL (≈ 0.0483 µM)
MIC [10]: 1.5 µg/mL (≈ 4.53 µM)
MIC [11]: 32 µg/mL (≈ 96.6 µM)
MIC [12]: 16 µg/mL (≈ 48.3 µM)
MIC [13]: 8 µg/mL (≈ 24.1 µM)
MIC [14]: 8 µg/mL (≈ 24.1 µM)
MIC [15]: 2 µg/mL (≈ 6.04 µM)
MIC [16]: 2 µg/mL (≈ 6.04 µM)
MIC [17]: 2 µg/mL (≈ 6.04 µM)
MIC [18]: 1 µg/mL (≈ 3.02 µM)
MIC [19]: 1 µg/mL (≈ 3.02 µM)
MIC [20]: 0.5 µg/mL (≈ 1.51 µM)
MIC [21]: 0.38 µg/mL (≈ 1.15 µM)
MIC [22]: 0.25 µg/mL (≈ 0.754 µM)
MIC [23]: 0.25 µg/mL (≈ 0.754 µM)
MIC [24]: 0.125 µg/mL (≈ 0.377 µM)
MIC [25]: 0.125 µg/mL (≈ 0.377 µM)
MIC [26]: 0.125 µg/mL (≈ 0.377 µM)
MIC [27]: 0.023 µg/mL (≈ 0.0694 µM)
MIC [28]: 0.016 µg/mL (≈ 0.0483 µM)
MIC [29]: 0.016 µg/mL (≈ 0.0483 µM)
MIC [30]: 0.016 µg/mL (≈ 0.0483 µM)
MIC [31]: 0.5 µg/mL (≈ 1.51 µM)
MIC [32]: > 32 µg/mL
MIC [33]: > 32 µg/mL
MIC [34]: > 32 µg/mL
MIC [35]: > 32 µg/mL
MIC [36]: 4 µg/mL (≈ 12.1 µM)
